In assay [1] the test system is E. coli BT3/pACYCSP+pTVCSF strain. Description: Growth of E. coli BT3/pACYCSP+pTVCSF (variant cucumber ferrochelatase) with herbicidal compound. It counts as cell-based, Escherichia coli. The settings on record: 18 hours culture, Table 13. From the text:
According to the description of Gibson, L. C. D. et al., Proc. Natl. Acad. Sci. USA, 92; p 1941 (1995), the DNA fragment containing bchH gene prepared in Example 1 was digested with the restriction enzymes NdeI and BglII. The resultant DNA fragment was inserted between NdeI restriction site and BamHI restriction site of expression vector pET11a (manufactured by Stratagene) to obtain plasmid pETBCH (FIG. 1). This plasmid pETBCH was introduced into E. coli BL21(DE3) strain competent cells (manufactured by Stratagene) according to the manual attached to the competent cells to obtain E. coli BL21(DE3)/pETBCH strain. The strain was inoculated into 1.5 ml LB liquid culture medium (1% tryptone, 0.5% yeast extract, 0.5% NaCl) containing 100 μg/ml ampicillin in a tube (14×10 mm), and the tube was covered with aluminum foil (hereinafter referred to as dark conditions), cultured with shaking at 37° C. under light of fluorescent lamp (about 8000 lux). When the absorbance at 600 nm of the liquid culture medium became about 0.6, isopropyl β-D-thiogalactopyranoside (IPTG) was added to the liquid culture medium so that the final concentration was 0.4 mM, and the culture was continued for about additional 20 hours. […] In contrast to this, when E. coli BL21(DE3)/pETBCH strain was cultured according to the same manner (with IPTG) except that the tube was not covered with aluminum foil (hereinafter referred to as light conditions), E. coli grew and turned red as above.
PCR was carried out by using cucumber ferrochelatase cDNA clone isolated by the method described in Miyamoto, K. et al. Plant Physiol., 105; p 769 (1994) as a template, an oligonucleotide composed of the nucleotide sequence of SEQ ID NO: 21 and an oligonucleotide composed of the nucleotide sequence of SEQ ID NO: 22 as primers to amplify the DNA fragment encoding cucumber ferrochelatase whose signal sequence had been deleted (hereinafter referred to as the variant cucumber ferrochelatase). […]
These E. coli strains were inoculated into YPT medium containing 10 or 1 ppm of the PPO inhibitory-type herbicidal compound represented by Structure 8, 100 μg/ml ampicillin, 15 μg/ml chloramphenicol, 10 μg/ml kanamycin, 10 μg/ml hemin and 50 μg/ml aminolevulinic acid, cultured under dark conditions or light conditions according to the same manner as in Example 2. Then, 18 hours after initiation of culture, the absorbance of liquid culture medium was measured at 600 nm. By taking the absorbance of the medium without the herbicidal compound as 1, the relative value of the absorbance of the medium containing the herbicidal compound was calculated.

The test system of assay [2] is tobacco introduced with the gene encoding the variant soybean PPO. Description: Leaf piece chlorophyll test, tobacco with gene encoding variant soybean PPO. It counts as in vivo. The settings on record: Table 8; for Resistant level to test compound: same manner as Example 6 (0.3 ppm), treated vs untreated leaf pieces; for Total chlorophyll content treated-leaf: same manner as Example 6 (0.3 ppm, 7 days in light). From the text: The tobacco leaves into which bchH gene was introduced and control recombinant tobacco leaves obtained in Example 5 were collected and each leaf was divided into the right and left equivalent pieces along the main vein, respectively. To one piece was applied an aqueous solution containing 0.3 ppm PPO inhibitory-type herbicidal compound of Structure 8, while, to the other piece was not applied the compound. These leaf pieces were placed on MS medium containing 0.8% agar and allowed to stand at room temperature for 7 days in light place. Then, each leaf piece was ground with pestle and mortar in 5 ml of 80% aqueous acetone solution to extract chlorophyll. The extract liquid was diluted with 80% aqueous acetone solution and the absorbance was measured at 750 nm, 663 nm and 645 nm to calculate total chlorophyll content according to the method described by Macknney G., J. Biol. Chem. (1941) 140, p 315. The results obtained from 4 clones of tobacco into which bchH gene was introduced (BCH1 to 4) and control recombinant tobacco is shown in Table 4. In the table, the resistant level to the herbicidal compound was represented by percentages of the total chlorophyll content of leaf pieces treated with herbicidal compound to that of untreated leaf pieces.
Leaf pieces of tobacco cultured sterilely were infected with the Agrobacterium strain and, according to the same manner as in Example 5, tobacco into which the gene encoding the variant soybean PPO was introduced was obtained.
The level of resistance to PPO inhibitory type herbicidal compound represented by Structure 8 was confirmed quantitatively by testing tobacco into which the gene encoding the variant soybean PPO prepared in Example 13 was introduced according to the same manner as in Example 6. The results obtained from 4 clones (GMP 1-4) of tobacco introduced with the gene encoding the variant soybean PPO and control recombinant tobacco are shown in Table 8. In the table, the resistant level to herbicidal compound is represented by percentage of the total chlorophyll content of leaf pieces treated with the herbicidal compound to that of untreated leaf pieces.

The structures appear in SMILES notation.

Here are results for one compound from patent US7973219B2, “Method for producing transgenic plants resistant to weed control compounds which disrupt the porphyrin pathways of plants” (Sumitomo Chemical Company, Limited, priority 1998, dated 2011).

With `C#CCOc1cc(N2C(=O)C3=C(CCCC3)C2=O)c(F)cc1Cl` [Structure 8], the Relative absorbance was 0.92 in assay [1] (in the dark, 1 ppm); 0.89 in assay [1] (in the dark, 10 ppm); 0.78 in assay [1] (in the light, 1 ppm); 0.73 in assay [1] (in the light, 10 ppm). For the same compound, the “Resistant level to test compound” value in assay [2] (clone GMP-1) is listed as 135%; in assay [2] (clone GMP-2), 108%; in assay [2] (clone GMP-3) it was 99.3%; in assay [2] (clone GMP-4), 80.4%. Moreover, the “Total chlorophyll content treated-leaf” value came out at 2.55 mg/g-fresh weight in assay [2] (clone GMP-1), 0.96 mg/g-fresh weight in assay [2] (clone GMP-2), 1.49 mg/g-fresh weight in assay [2] (clone GMP-3) and 2.34 mg/g-fresh weight in assay [2] (clone GMP-4).
